Results reported in patent US6391888B1, “Topical anesthetics useful for treating cancer” (Mayo Foundation for Medical Education and Research, priority 1999, dated 2002).

Legend:
[1] = system: calcium-activated, phospholipid-dependent protein kinase (PKC); details: data suggesting; M. K. Tomoda et al., 1990; cited from earlier work
PKCδ = PKCδ (Homo sapiens, UniProt Q05655); assay: lidocaine binding to and modulation of PKCδ (applicant's discovery, no method given); type: biochemical; details: calcium independent PKC isozyme PKCδ; qualitative statement
Sequence of PKCδ (Q05655 whole entry): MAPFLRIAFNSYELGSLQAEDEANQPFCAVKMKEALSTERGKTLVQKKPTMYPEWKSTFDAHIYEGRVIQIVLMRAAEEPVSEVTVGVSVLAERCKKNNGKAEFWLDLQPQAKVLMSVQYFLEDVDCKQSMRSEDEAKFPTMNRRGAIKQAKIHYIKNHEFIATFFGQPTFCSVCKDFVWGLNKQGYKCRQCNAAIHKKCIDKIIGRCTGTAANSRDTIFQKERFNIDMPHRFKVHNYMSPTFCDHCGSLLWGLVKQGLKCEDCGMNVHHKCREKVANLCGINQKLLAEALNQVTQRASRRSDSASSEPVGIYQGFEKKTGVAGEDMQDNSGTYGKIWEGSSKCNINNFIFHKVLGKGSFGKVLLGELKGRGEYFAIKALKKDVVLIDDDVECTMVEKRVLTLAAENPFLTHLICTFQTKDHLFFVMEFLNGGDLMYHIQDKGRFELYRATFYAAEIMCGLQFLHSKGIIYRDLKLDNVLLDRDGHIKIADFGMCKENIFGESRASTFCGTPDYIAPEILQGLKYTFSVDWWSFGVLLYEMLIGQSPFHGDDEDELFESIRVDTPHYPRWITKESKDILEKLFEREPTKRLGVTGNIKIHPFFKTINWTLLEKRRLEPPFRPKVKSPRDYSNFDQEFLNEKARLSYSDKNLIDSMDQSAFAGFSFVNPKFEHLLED

## CCN(CC)CC(=O)Nc1c(C)cccc1C [lidocaine, (2-diethylamino)-N-(2,6-dimethylphenyl)-acetamide]
[1]
  inhibition of calcium-activated, phospholipid-dependent protein kinase (PKC): inhibits
PKCδ
  binding to and modulation of the effects of PKCδ: binds to and modulates (e.g. inhibits)
